According to paper PMC12010937, “Evaluation of FXR Activity in Pollutants Identified in Sewage Sludge and Subsequent in Vitro and in Vivo Characterization of Metabolic Effects of Triphenyl Phosphate” (Environmental Health Perspectives, 2025):
Several values for one entry are separate records, joined by “and”; a condition that tells them apart may be missing. Equal entries are not always repeated. Where two headings read alike, the source gives them in different places.

What was measured:
[1] = Analysis of TPHP in mice (serum, liver, ileum) by UPLC-MS/MS; type: in vivo, C57BL/6N mice; conditions: mouse
Protocol: (§1) Male C57BL/6N mice (8 wk of age) were purchased from Beijing Vital River Laboratory Inc. and acclimated to the environment for 2 wk before they were used for experiments. The environment was maintained at 22°C, in a 12-h light/dark cycle with 50%–60% relative humidity and fed standard chow diets. Because the male mice are more sensitive to metabolic disease than female mice and the estrous cycle of female mice may induce variability to the metabolic phenotypes,[50] only male mice were used in this study. Animals were randomly assigned to control or TPHP treatment groups (five mice per group). Mice were exposed to corn oil (control) purchased from Sigma-Aldrich (C8267) or TPHP (dissolved in corn oil) at 10mg/kg or 50mg/kg body weight (BW) by daily oral gavage for 35 d. The administered volume was 5mL/kg BW. The TPHP corn oil solutions for administration were prepared by dissolving the TPHP in corn oil, and the solutions were stored at −20°C and freshly prepared each week. BW was measured every other day during the dosing period. At the end of experiments, the mice were anesthetized with isoflurane, then blood was collected from the retro-orbital sinus via orbital puncture, and then the mice were euthanized by cervical dislocation. The liver was isolated, weighted, and divided into three fractions: one fraction was fixed with 4% neutral-buffered formalin for Oil Red staining; another fraction was frozen in liquid nitrogen and stored at −80°C for the BA targeted analysis, lipidomic analysis, and qPCR analysis; the remaining fraction was embedded with 3% carboxymethylcellulose (CMC) for MSI analysis. The ileum was also isolated, weighted, and stored at −80°C for the BA targeted analysis and qRT-PCR analysis. Cecal contents were collected from the cecum of mice for the 16S rRNA gene sequencing analysis. Animal study protocols were approved by the Animal Care and Use Committee of Peking University (approval number: Urban-WanY-1).
Samples of serum ( 100μL ) and freeze-dried liver ( 50mg ) and ileum tissues ( 10mg ) were spiked with 10μL of 100 ng/mL TPHP- d15 (CDAA-412134D15; ANPEL) and extracted with 2mL of ethyl acetate for 10 min on an orbital shaker. After centrifuging at 4,000×g for 10 min, the supernatants were transferred to glass tubes. The extraction process was performed twice, and the supernatants were combined, concentrated to near dryness under a gentle stream of nitrogen, and reconstituted in 1mL of n -hexane. Then, the extracts were loaded on a Sep-Pak Aminopropyl ( NH2 ) cartridge (6cc, 500mg; Waters) preconditioned with 6mL of dichloromethane, 6mL of dichloromethane/n-hexane (1:4, v/v), and 6mL of n -hexane. After being rinsed with 6mL of n -hexane and 6mL of dichloromethane/n-hexane (1:4, v/v), the target analytes were eluted with 3mL of dichloromethane. The eluates were dried under a gentle stream of nitrogen and reconstituted in 100μL of methanol.
Analysis of TPHP was performed on a Waters Xevo TQ-XS Triple Quadrupole mass spectrometer coupled with the Waters ACQUITY UPLC I-Class System. An InfinityLab Poroshell C18 column ( 100×2.1mm , 1.9μm ) was used. The injection volume was 5μL . Ultrapure water (0.1% formic acid) (A) and acetonitrile (B) were used as the mobile phases. The elution gradient was performed as follows: 0–3 min, 50% B; 3–6 min, 50%−70% B; 6–6.2 min, 70%−100% B; 6.2–8.5 min, 100%−100% B; 8.5–8.6 min, 100%−50% B; 8.6–10 min, 50% B. The rate of flow was 0.3mL/min . The column temperature was maintained at 40°C. The mass spectrometer was equipped with an ESI source and operated in multiple reaction monitoring (MRM) and positive ion mode. A capillary voltage of 3.0 kV , a source temperature of 150°C, and a desolvation temperature of 500°C were used. Desolvation gas and the cone gas flow were set as 1,200 liters/h and 150 liters/h , respectively, and the collision gas was 0.15mL/min . […] The matrix effects were 114.9±4.3% and 118.4±0.5% for the serum and tissues, respectively.

[2] = target: T1, human FXR-LBD (GST-FXR-LBD) (Homo sapiens, UniProt Q96RI1); assay: HTRF coactivator recruitment assay, agonist mode; type: biochemical
T1 construct: the human FXR-LBD (residues 234–472) was expressed as a GST fusion protein GST-FXR-LBD; made in house; host or cells: E. coli BL21(DE3)
T1 sequence (Q96RI1 234-472 isoform Q96RI1-2): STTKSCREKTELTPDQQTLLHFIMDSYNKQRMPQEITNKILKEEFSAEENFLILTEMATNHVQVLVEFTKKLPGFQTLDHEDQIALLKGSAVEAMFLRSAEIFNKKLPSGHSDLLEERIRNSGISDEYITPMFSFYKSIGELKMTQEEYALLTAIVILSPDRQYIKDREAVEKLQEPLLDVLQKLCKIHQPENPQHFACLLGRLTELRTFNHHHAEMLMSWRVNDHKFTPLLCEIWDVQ

C57BL/6N mice [3] = assay: Hepatic total bile acids (TBA colorimetric assay kit); type: in vivo; conditions: for Hepatic TBA: individual mice
Protocol: as §1, with “Cecal contents were collected from the cecum of mice for the 16S rRNA gene sequencing analysis. Animal study protocols were approved by the Animal Care and Use Committee of Peking University (approval number: Urban-WanY-1).” left out
The TG level in the liver was determined using a triglyceride enzymatic assay kit (Applygen). […] The total BA level in the liver was determined using a Total Bile Acid (TBA) Colorimetric Assay Kit (Elabscience). […] Both the TG and TBA results were normalized by the protein concentration determined by bicinchoninic acid (BCA) method using a BCA kit (Applygen).

C57BL/6N mice [4] = assay: Oil Red O lipid staining of liver sections; type: in vivo; conditions: TPHP exposure groups
Protocol: as §1, with “The liver was isolated, weighted, and divided into three fractions: one fraction was fixed with 4% neutral-buffered formalin for Oil Red staining; another fraction was frozen in liquid nitrogen and stored at −80°C for the BA targeted analysis, lipidomic analysis, and qPCR analysis; the remaining fraction was embedded with 3% carboxymethylcellulose (CMC) for MSI analysis. The ileum was also isolated, weighted, and stored at −80°C for the BA targeted analysis and qRT-PCR analysis. Cecal contents were collected from the cecum of mice for the 16S rRNA gene sequencing analysis. Animal study protocols were approved by the Animal Care and Use Committee of Peking University (approval number: Urban-WanY-1).” left out

Molecule O=P(Oc1ccccc1)(Oc1ccccc1)Oc1ccccc1 [TPHP, triphenyl phosphate] has a concentration at 35 d ([1]; male, C57BL/6N, ileum, TPHP-H: 50 mg/kg daily oral gavage 35 d, read-out: TPHP concentration in ileum) of 13.2 ± 0.91 ng/g, a concentration at 35 d ([1]; male, C57BL/6N, ileum, TPHP-L: 10 mg/kg daily oral gavage 35 d, read-out: TPHP concentration in ileum) of 7.24 ± 1.33 ng/g and a concentration at 35 d ([1]; male, C57BL/6N, liver, TPHP-H: 50 mg/kg daily oral gavage 35 d, read-out: TPHP concentration in liver) of 12.9 ± 3.31 ng/g. For the same molecule, the concentration at 35 d ([1]; male, C57BL/6N, liver, TPHP-L: 10 mg/kg daily oral gavage 35 d, read-out: TPHP concentration in liver) was 5.33 ± 1.91 ng/g, the concentration at 35 d ([1]; serum, TPHP-H: 50 mg/kg daily oral gavage 35 d, male C57BL/6N mice, read-out: TPHP concentration in serum) was 0.79 ± 0.36 ng/mL and the concentration at 35 d ([1]; serum, TPHP-L: 10 mg/kg daily oral gavage 35 d, male C57BL/6N mice, read-out: TPHP concentration in serum) was 0.32 ± 0.03 ng/mL. The “Relative activity, agonist mode” value [2] was 0.00%, the “Increase of total BA concentration in the liver relative to the control group” value (C57BL/6N mice [3]; TPHP-H group, 35 d of exposure) was 2 fold and the “Hepatic TBA” value (C57BL/6N mice [3]; TPHP-H: 50 mg/kg daily oral gavage 35 d) was 2.67 µmol/g and 2.92 µmol/g and 2.08 µmol/g. For the same molecule, the “Hepatic TBA” value (C57BL/6N mice [3]; TPHP-L: 10 mg/kg daily oral gavage 35 d) was 1.89 µmol/g and 1.55 µmol/g and 1.58 µmol/g and the “Oil Red O staining intensity of liver sections vs control (in words)” value (C57BL/6N mice [4]) was “higher”.
